This passage reports Drug metabolism results from ChEMBL document CHEMBL3526048, “In vitro metabolism of rivoglitazone, a novel peroxisome proliferator-activated receptor γ agonist, in rat, monkey, and human liver microsomes and freshly isolated hepatocytes” (Drug Metab Dispos, 2011).

One data set addresses Cytochrome P450 2C9 (Homo sapiens, UniProt P11712). The data set can be described thus: Activity of human CYP2C9 expressed in microsomes isolated from baculovirus infected insect cell assessed as enzyme-mediated 2-hydroxy-3-(4-((6-methoxy-1-methyl-1H-benzo[d]imidazol-2-yl)methoxy)phenyl)propanamide formation at 20 uM after 2 hrs by radio-HPLC/LC-MS/MS analysis in presence of NADPH-generating system and NADPH-generating system/SAM. Type of data set: ADME.

A short description of data set [1]: Drug metabolism in rat hepatocytes assessed as formation of 3-(4-((6-methoxy-1-methyl-1H-benzo[d]imidazol-2-yl)methoxy)phenyl)-2-(methylsulfonyl)propanamide at 30 uM after 3 hrs by radio-HPLC/LC-MS/MS analysis in presence of NADPH-generating system/SAM. The data set is classed as ADME, cell-based, Hepatocyte.
The nature of data set [2]: Drug metabolism in po dosed monkey bile assessed as formation of 5-(4-((6-methoxy-1H-benzo[d]imidazol-2-yl)methoxy)benzyl)thiazolidine-2,4-dione. Type of data set: ADME, organism-based, Macaca mulatta. The settings on record: rhesus monkey, in vivo.
The next data set deals with T1, Cytochrome P450 2C8 (Homo sapiens, UniProt P10632).
T1 sequence (P10632 whole entry): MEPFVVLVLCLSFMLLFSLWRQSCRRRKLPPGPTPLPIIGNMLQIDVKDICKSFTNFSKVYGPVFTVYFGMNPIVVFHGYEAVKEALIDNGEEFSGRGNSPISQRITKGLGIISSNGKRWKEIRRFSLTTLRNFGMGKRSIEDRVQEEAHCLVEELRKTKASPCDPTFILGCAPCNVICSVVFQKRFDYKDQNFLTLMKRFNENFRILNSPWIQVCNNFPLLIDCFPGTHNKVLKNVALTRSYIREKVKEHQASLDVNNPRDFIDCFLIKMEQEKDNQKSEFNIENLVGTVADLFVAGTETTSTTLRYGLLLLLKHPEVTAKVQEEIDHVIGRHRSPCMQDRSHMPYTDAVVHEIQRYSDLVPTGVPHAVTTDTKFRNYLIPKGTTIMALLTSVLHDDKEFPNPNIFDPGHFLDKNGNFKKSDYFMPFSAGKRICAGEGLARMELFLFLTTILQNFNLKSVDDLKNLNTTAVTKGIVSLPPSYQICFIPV
The data set can be described thus: Activity of human CYP2C8 expressed in microsomes isolated from baculovirus infected insect cell assessed as enzyme-mediated 3-(4-((6-methoxy-1-methyl-1H-benzo[d]imidazol-2-yl)methoxy)phenyl)-2-(methylthio)propanoic acid formation at 20 uM after 2 hrs by radio-HPLC/LC-MS/MS analysis in presence of NADPH-generating system/SAM and UDPGA/SAM. Type of data set: ADME.

A short description of data set [3]: Drug metabolism in monkey hepatocytes assessed as formation of (2S,3S,4S,5R,6R)-3,4,5-trihydroxy-6-(5-(4-((6-methoxy-1-methyl-1H-benzo[d]imidazol-2-yl)methoxy)benzyl)-2,4-dioxothiazolidin-3-yl)tetrahydro-2H-pyran-2-carboxylic acid at 30 uM after 3 hrs by radio-HPLC/LC-MS/MS analysis. The settings on record: cynomolgus monkey.
For data set [4], the target named is T2, UDP-glucuronosyltransferase 1A4 (Homo sapiens, UniProt P22310).
T2 sequence (P22310 whole entry): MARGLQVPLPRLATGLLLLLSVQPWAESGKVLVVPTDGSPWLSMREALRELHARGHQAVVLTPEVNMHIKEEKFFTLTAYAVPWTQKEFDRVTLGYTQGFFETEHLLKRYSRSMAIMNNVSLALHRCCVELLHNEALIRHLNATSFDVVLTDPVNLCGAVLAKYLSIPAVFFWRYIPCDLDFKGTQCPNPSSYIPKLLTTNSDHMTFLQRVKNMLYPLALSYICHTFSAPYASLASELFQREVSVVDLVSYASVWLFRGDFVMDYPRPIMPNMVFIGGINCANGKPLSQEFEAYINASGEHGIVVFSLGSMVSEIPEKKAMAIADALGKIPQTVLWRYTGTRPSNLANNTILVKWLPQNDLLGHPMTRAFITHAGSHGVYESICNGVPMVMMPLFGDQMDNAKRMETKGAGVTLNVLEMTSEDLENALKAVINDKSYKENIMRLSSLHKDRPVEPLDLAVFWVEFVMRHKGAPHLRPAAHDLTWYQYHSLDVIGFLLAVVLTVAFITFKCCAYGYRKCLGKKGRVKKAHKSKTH
Briefly: Activity of human UGT1A4 expressed in microsomes isolated from baculovirus infected insect cell assessed as enzyme-mediated 2-mercapto-3-(4-((6-methoxy-1-methyl-1H-benzo[d]imidazol-2-yl)methoxy)phenyl)propanoic acid formation at 20 uM after 4 hrs by radio-HPLC/LC-MS/MS analysis in presence of UDPGA. The data set is classed as ADME.

For data set [5], the target named is T3, UDP-glucuronosyltransferase 1A3 (Homo sapiens, UniProt P35503).
T3 sequence (P35503 whole entry): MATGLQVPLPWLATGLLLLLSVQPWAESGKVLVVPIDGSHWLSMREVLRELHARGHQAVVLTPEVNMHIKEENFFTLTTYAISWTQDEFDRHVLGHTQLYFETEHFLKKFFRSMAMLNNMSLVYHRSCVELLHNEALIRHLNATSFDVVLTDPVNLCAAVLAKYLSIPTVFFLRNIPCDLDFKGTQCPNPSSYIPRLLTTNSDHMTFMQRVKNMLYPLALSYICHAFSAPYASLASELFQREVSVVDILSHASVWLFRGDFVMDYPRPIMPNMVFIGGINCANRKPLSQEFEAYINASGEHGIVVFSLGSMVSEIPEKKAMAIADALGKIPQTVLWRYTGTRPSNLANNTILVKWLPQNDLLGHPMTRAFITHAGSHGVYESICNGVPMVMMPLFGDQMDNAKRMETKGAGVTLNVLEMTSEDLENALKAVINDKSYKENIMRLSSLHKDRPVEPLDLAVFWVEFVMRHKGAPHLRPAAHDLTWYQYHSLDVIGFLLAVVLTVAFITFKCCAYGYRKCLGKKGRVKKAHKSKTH
Briefly: Activity of human UGT1A3 expressed in microsomes isolated from baculovirus infected insect cell assessed as enzyme-mediated 3-(4-((6-methoxy-1-methyl-1H-benzo[d]imidazol-2-yl)methoxy)phenyl)-2-(methylthio)propanoic acid formation at 20 uM after 4 hrs by radio-HPLC/LC-MS/MS analysis in presence of NADPH-generating system/SAM and UDPGA/SAM in presence of UDPGA and UDPGA/SAM. The data set is classed as ADME.

Structures are written as SMILES.

Cytochrome P450 2C9, sequence (P11712 whole entry): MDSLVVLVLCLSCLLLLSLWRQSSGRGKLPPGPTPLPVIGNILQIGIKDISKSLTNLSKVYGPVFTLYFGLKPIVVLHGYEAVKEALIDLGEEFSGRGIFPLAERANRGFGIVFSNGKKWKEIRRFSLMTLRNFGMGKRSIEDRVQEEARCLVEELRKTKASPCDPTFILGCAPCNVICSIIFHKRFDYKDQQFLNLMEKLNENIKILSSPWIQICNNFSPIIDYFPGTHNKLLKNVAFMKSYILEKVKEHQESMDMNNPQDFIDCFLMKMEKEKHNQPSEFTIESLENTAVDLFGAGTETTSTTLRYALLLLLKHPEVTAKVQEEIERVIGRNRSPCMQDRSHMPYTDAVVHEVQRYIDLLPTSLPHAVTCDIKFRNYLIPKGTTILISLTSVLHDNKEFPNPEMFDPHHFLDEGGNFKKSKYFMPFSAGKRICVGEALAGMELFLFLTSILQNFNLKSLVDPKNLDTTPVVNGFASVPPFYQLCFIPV

Turning to `COc1ccc2nc(COc3ccc(C[14CH]4SC(=O)NC4=O)cc3)n(C)c2c1.Cl` (racemic), the Drug metabolism entry is “metabolite_detected” at Cytochrome P450 2C9; “metabolite_detected” in data set [1]; “metabolite_detected” in data set [2]; “metabolite_not_detected” on Cytochrome P450 2C8; “metabolite_detected” in data set [3]; “metabolite_not_detected” in data set [4]. Further, in data set [5], the Drug metabolism entry is on record as “metabolite_not_detected”.
